{"source": "ChEMBL document CHEMBL1151619", "about": "“Structure and conformation of two new dolabellane-based diterpenes from Dictyota sp” (J Nat Prod, 1984)", "system": "KB", "assay": "Cytotoxicity against human KB cells", "type": "functional, cell-based", "note": "Calls of active or inactive are those of the source. The rule behind the calls is not given here.", "data": [{"smiles": "C=C(C)[C@@H]1CC[C@]2(C)C[C@H](OC(C)=O)/C(CO)=C/CC/C(C)=C/C[C@@H]12", "values": [{"measurement": "Activity", "value": "Active"}]}]}
